Experimental data reported in article PMC5640644, “HDX reveals the conformational dynamics of DNA sequence specific VDR co-activator interactions” (Nature Communications, 2017).
Like-named read-outs stand apart in the source and are kept apart here.

Tests used:
[1] = tested on: TRPV6; assay: TRPV6 gene activation assay (TRPV6 mRNA, QuantiGene 2.0) in differentiated C2BBe1 cells; format: cell-based, human; details: for Max. Stim., TRPV6 activation: C2BBe1 cells, fold change over DMSO normalized to 1,25D3 = 100%; for EC50: C2BBe1 cells differentiated 6 days, 24 h
Experimental: C2BBe1 (a clone of CaCO2) cells (CRL-2101, American Type Culture Collection, Manassas, VA) were maintained in DMEM (ATCC 30-2002) supplemented with 10% FBS and insulin-transferrin-selenium-G supplement (Invitrogen, Carlsbad, CA). For TRPV6 expression analysis, cells were plated in 96-well tissue culture treated plates (40,000 per well) in differentiation medium (DMEM containing 5% charcoal-stripped FBS and insulin-transferrin-sodium selenite supplement (ITS)). Cells were allowed to differentiate for 6 days with medium replacement every other day before compound treatment. The medium was removed, and serial dilutions of 1,25D3 or VDRMs in concentrations ranging from 10 μM to 2 nM in differentiation medium were added. After 24 h, the medium was removed, and cell plates were sealed and frozen at −80 °C until assayed. QuantiGene 2.0 Assay Kit (Affymetrix QS0009) was used to quantitate TRPV6 and housekeeping gene GUSB mRNA levels. Following the kit instructions, lysis buffer was added to the frozen cells and incubated briefly at 55 °C […]. Following an overnight incubation the capture plates were washed and the probes amplified following kit instructions. The resulting luminescence signal was detected on an Envision plate reader (Perkin Elmer). TRPV6 signal was normalized using the GUSB signal and the resulting data was fit to a 4-parameter logistic to determine EC50 values.

[2] = tested on: BGLAP; assay: BGLAP gene activation assay (BGLAP mRNA, QuantiGene 2.0) in MG-63 cells; format: cell-based, human; details: MG-63 cells; for EC50: 24 h, average of replicate runs, read-out: EC50, BGLAP activation; for Max. Stim., BGLAP activation: fold change over DMSO normalized to 1,25D3 = 100%
Experimental: Human osteosarcoma cells MG-63, (CRL-1427, American Type Culture Collection (ATCC), Manassas, VA), were maintained in EMEM (ATCC 30–2003) + 10% FBS in 5% CO2. For bone gamma-carboxyglutamate protein (BGLAP) expression analysis MG-63 cells, suspended in EMEM (ATCC 30–2003) + 5% charcoal dextran treated FBS, were seeded onto 96-well tissue culture treated plates at 25,000 cells per well. After an overnight incubation the medium was removed and serial dilutions of VDRMs in concentrations ranging from 10 μM to 2 nM in EMEM (ATCC 30–2003) + 5% charcoal dextran treated FBS were added. Following a 24 h incubation the medium was removed and the plates were sealed and stored at −80 °C for later processing. QuantiGene 2.0 Assay Kit (Affymetrix QS0009) was used to quantitate BGLAP and the Housekeeping gene […] mRNA levels. Following the kit instructions, lysis buffer was added to the frozen cells and incubated briefly at 55 °C. A volume of 20 μl of BGLAP probeset (Affymetrix SA-10875-01) or 18 S (Affymetrix SA-10026) in blocking buffer was added to the provided capture plates before adding 80 μl of the cell lysate. The plates were sealed and incubated at 55 °C overnight. Following an overnight incubation the capture plates were washed and the probes amplified following kit instructions. The resulting luminescence signal was detected on an Envision (Perkin Elmer). BGLAP signal was normalized using the 18S signal and the resulting data was fit to a 4-parameter logistics to determine EC50.

[3] = Homo sapiens, average of replicate runs

| SMILES | Max. Stim., TRPV6 activation [1] [%] | EC50 [1, 3] [nM] | EC50 ([2]; Homo sapiens) [nM] | Max. Stim., BGLAP activation [2] [%] | EC50 ([1]; top concentration 10 μM) [nM] | EC50 [2] [nM] |
| --- | --- | --- | --- | --- | --- | --- |
| CCc1cc(C(CC)(CC)c2ccc(OCC(O)C(C)(C)C)c(C)c2)sc1C(=O)N[C@@H](C)C(=O)O (single isomer, unassigned) [Cmpd2, L-2-[(5-{1-Ethyl-1-[4-(2-hydroxy-3,3-dimethyl-butoxy)-3-methyl-phenyl]-propyl}-3-ethyl-thiophene-2-carbonyl)-amino]-propionic acid] | 98.2 | 395 | 34.9 | 73 | – | – |
| CCC(CC)(c1ccc(OCC(O)C(C)(C)C)c(C)c1)c1ccc(C(=O)N(C)CC(=O)O)c(C)c1 (stereo not drawn) [Cmpd1, [(4-{1-ethyl-1-[4-(2-hydroxy-3,3-dimethyl-butoxy)-3-methyl-phenyl]-propyl}-2-methyl-benzoyl)-methyl-amino]-acetic acid] | 80.3 | 63 | 1.44 | 94.2 | – | – |
| CCC(CC)(c1ccc(OCC(O)C(C)(C)C)c(C)c1)c1cc(C)c(C(=O)Nc2nnn[nH]2)s1 (stereo not drawn) [Cmpd3, 3'-[4-(2-hydroxy-3,3-dimethylbutoxy)-3-methylphenyl]-3'-[5-(tetrazol-5-yl-aminocarbonyl)-4-methylthiophen-2-yl]pentane] | 17.4 | – | – | 75.9 | > 10000 | 698 |
